According to patent US9447157B2, “Nitration shielding peptides and methods of use thereof” (Augusta University Research Institute, Inc., priority 2013, dated 2016):
Numbering of substitutions follows the chain as printed.

Columns and labels:
[1] = target: T1, PKG-1α (Homo sapiens, UniProt Q13976); experiment: [3H]cGMP binding assay; conditions: SIN-1 500 μM 30 min
T1 construct: transfected with an expression plasmid containing a full length WT-PKG-1α cDNA; made in house; host or cells: HEK-293T (methods); the results paragraph b527 says PASMC
T1 sequence (Q13976 2-671): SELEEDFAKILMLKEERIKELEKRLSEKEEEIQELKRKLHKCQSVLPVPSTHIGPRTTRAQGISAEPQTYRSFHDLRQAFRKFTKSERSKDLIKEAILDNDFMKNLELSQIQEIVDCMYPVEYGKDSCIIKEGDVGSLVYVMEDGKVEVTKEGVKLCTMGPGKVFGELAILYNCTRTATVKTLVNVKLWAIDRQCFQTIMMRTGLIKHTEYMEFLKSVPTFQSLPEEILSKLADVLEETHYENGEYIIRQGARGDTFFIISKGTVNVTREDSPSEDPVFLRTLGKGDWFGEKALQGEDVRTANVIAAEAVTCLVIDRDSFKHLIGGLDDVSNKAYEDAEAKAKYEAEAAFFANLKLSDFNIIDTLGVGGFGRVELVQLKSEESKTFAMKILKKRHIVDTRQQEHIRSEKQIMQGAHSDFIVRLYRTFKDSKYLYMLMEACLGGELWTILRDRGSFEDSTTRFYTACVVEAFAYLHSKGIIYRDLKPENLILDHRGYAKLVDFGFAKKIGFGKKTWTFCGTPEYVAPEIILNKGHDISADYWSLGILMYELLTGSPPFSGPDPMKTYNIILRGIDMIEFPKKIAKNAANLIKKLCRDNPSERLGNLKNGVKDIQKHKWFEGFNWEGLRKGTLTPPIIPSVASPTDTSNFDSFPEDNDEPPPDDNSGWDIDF
Procedure: (§1) HEK-293T cells were transiently transfected with either the WT-PKG-1α or the Y247FPKG-1α cDNA using Effectene transfection reagent (Qiagen), according to the manufacturer's instructions. Briefly, the cells were split the day before the transfection to low cell densities (25%) and were transfected 24 h later. After 48 h of transfection, the cells were incubated in DMEM serum free media containing 1% FBS and antibiotics for 4 h and then treated with or without SIN-1 (500 μM), for 30 min. This method produced an approximate 70% transfection efficiency of HEK-293T cells, as measured using green fluorescent protein vectors. […]
(§2) The batches of supernatant were pooled, and 2 μg of anti-PKG-1α antibody per mg of protein were added to the extract and rocked at 4° C. […] After 15 min of agitation at 4° C., the beads were pelleted by centrifugation, and the supernatant containing the PKG-1α protein was collected, quantified using Bradford reagent, and stored at −80° C.
(§3) To assay the binding of cGMP to WT- and Y247F-PKG-1α the enzymes were saturated with cGMP by incubating 50 μl aliquots of the diluted PKG constructs for 60 min at room temperature with 50 μl of [^3H]cGMP and 150 μl of cGMP-binding assay mixture (25 mM K2HPO4, 25 mM KH2PO4, 1 mM EDTA, pH 6.8, 2M NaCl, 200 μM 3-isobutyl-1-methylxanthine). […] The dissociation constant (Kd) values were determined using GraphPad Prism graphics.

[2] = target: T2, PKG-1α (Homo sapiens, UniProt Q13976, Y247F); experiment: [3H]cGMP binding assay; parameters: transfected with an expression plasmid containing a full length WT-PKG-1α cDNA; made in house; host or cells: HEK-293T (methods); the results paragraph b527 says PASMC; conditions: SIN-1 500 μM 30 min
T2 sequence (Q13976 2-671 Y247F): T1 sequence (Q13976 2-671) with Y246F
Procedure: as §1, §2, §3

Maximal [3H]cGMP binding to WT-PKG-1α [1]: significantly attenuated | Maximal [3H]cGMP binding to Y247F-PKG-1α [2]: but not to the Y247F-PKG-1α mutant
Substance: 3-morpholinosydnonimine N-ethylcarbamide [SIN-1]
